US9587220B2, “Method for inducing cardiac differentiation of pluripotent stem cell” (Kyoto University, priority 2012, dated 2017)

Columns and labels:
[1] = tested on: WNT target genes in IMR90-1 hiPSCs; experiment: Microarray and qPCR gene expression of WNT target genes; type: cell-based, human; details: for expression levels of WNT target genes by qPCR: 12, 24 and 72 h after treatment
Procedure: IMR90-1 iPSCs were cultured in cardiac differentiation medium containing serum. On Day 3, cells were treated with 10 μM KY02111 or 0.1% DMSO for 0, 12, or 24 h. Non-treated cells (0 h), cells treated with KY02111 for 12 h (KY12hr) or 24 h (KY24hr), and cells treated with 0.1% DMSO for 12 h (DMSO12hr) or 24 h (DMSO24hr) were used for microarray analysis. Total RNA was prepared using the RNeasy Mini Kit (Qiagen), according to the manufacturer's instructions. Synthesis of cDNA, in vitro transcription and biotin labeling cRNA, and hybridization to the Human Gene 1.0 ST array (Affymetrix) were performed according to Affymetrix protocols. Hybridized arrays were scanned using an Affymetrix GeneChip Scanner. Data normalization and further analysis were performed with GeneSpring GX (Agilent Technologies). Proportions of treated cells expressing genes relative to control (KY02111/DMSO) were calculated for each time point. […] The microarray data have been submitted to the Gene Expression Omnibus (GEO) public database at NCBI (GEO accession number, GSE33622).
Total RNA was isolated with an RNeasy Mini Kit (QIAGEN). Genomic DNA was completely digested with DNase I (Invitrogen). Total RNA (0.5 μg) was subjected to cDNA synthesis using the SuperScript III Reverse Transcriptase (Invitrogen). qRT-PCR was performed in triplicate, using SYBER GREEN PCR Master Mix on a 7500 Real Time PCR System (Applied Biosystems). The cycling conditions were as follows: 10 min at 95° C.; 40 cycles, each consisting of 15 s at 95° C.; 1 min at 60° C. Total RNA from human adult heart tissue (BioChain) was used to evaluate the expression levels of cardiac marker genes for cardiomyocytes derived from hPSCs. All values were normalized with respect to GAPDH expression level and expressed relative to the corresponding values in human adult hearts (100%).

[2] = tested on: IMR90-1 hiPSCs; experiment: Number of beating colonies and total number of cardiomyocytes per well (WNT inhibitor combinations); type: cell-based, human; details: total cell number x cTnT-positive ratio, FIG. 3e
[3] = tested on: human αMHC promoter-driven EGFP transgenic monkey ESCs; experiment: αMHC promoter-driven GFP expression, cardiac differentiation of transgenic monkey ESCs (HCA); type: cell-based; details: for intensity of the GFP signal driven by αMHC promoter: comparison of chemical and proteinaceous WNT inhibitors, FIG. 3b,c; for cardiac differentiation when BIO was added: monkey ESCs and hiPSCs, with 5 μM BIO
Excerpt: To generate human αMHC promoter-driven EGFP-expressing monkey ESCs, the 918 bp upstream from the transcriptional starting site and the third exon just before the open reading frame were amplified from genomic DNAs of KhES-1 hESCs by PCR, using the following primer sets —forward primer, 5′- […]-3′ (SEQ ID No: 37); reverse primer, 5′- (including a SalI linker) 22 […]-3′ (SEQ ID No: 38)—and then ligated into pGEM-T Easy Vector (Promega). The HindIII/SalI fragment from the cloning vector was connected with pEGFP-1 (Clontech). The linearized αMHC-EFGP vector was introduced into CMK6.4 monkey ESCs by electroporation. Transgenic ESC clones were selectively grown with G418 (Sigma-Aldrich). The expression of EGEP was confirmed in beating colonies.
The confluent (4-5 d after passage) αMHC-GFP transgenic monkey ESCs were dissociated enzymatically by CTK solution (Non-patent literature 1), and the ESC clumps (40-100 μm in diameter) were obtained using 40 and 100 μm Cell Strainers (BD Biosciences). The ESC clumps (approximately 5.0×10^3 cells well^−1) were transferred onto 96-well plates (Greiner Bio-One, 96-well black plate, Cat. No. 655090) and incubated in cardiac differentiation medium as described in (4) below. During Days 6-14 of cardiac differentiation, 9600 compounds from the chemical library (dissolved in DMSO) were screened using 96-well plates. Sixteen and 80 wells were used for the control (0.1% DMSO) and chemical compounds (1 per well), respectively. Final concentration of the each compound was approximately 1-5 μM. Medium containing small molecules was changed every 4 d. On Day 14, GFP fluorescence of ESCs was measured by whole-plate scanning, using the Metamorph imaging system (Molecular Device). Metamorph software was used to analyze the GFP fluorescence data and calculate Fluorescence Area, Total Fluorescence Intensity, Average Fluorescence Intensity, and number of GFP-positive colonies for each well. Hit compounds were determined by the following criteria: Average Fluorescence Intensity of a well with the compound was >6 SD greater than Average Fluorescence Intensity of the control (mean of 16 wells), and Total Fluorescence Intensity for the compound was >0 SD greater than the control; or Total Fluorescence Intensity of the compound was >4 SD greater than the control, and Average Fluorescence Intensity of the compound was >0 SD greater than the control. One hundred and twenty compounds passed these criteria and were retested using 8 wells for each compound.
Confluent hESCs and hiPSCs were gently detached with CTK solution and transferred into Petri dishes (BD Biosciences) with Primate ES Cell Culture Medium (ReproCELL, Japan). Cells were held in suspension culture for 8-24 h to form aggregates. The sizes of hPSC aggregates (0.3-1 mm in diameter) are important for efficient differentiation. Following suspension culture, cell aggregates were attached to culture dishes (3-10×10^5 cells cm^−2) in cardiac differentiation medium: IMDM (Sigma), containing 20% FBS (Gibco), 1% MEM non-essential amino acid solution (Sigma), 1% Penicillin-Streptomycin (Gibco), 2 mM L-glutamine (Sigma), 0.001% 2-Mercaptoethanol (Gibco), and 0.005N NaOH, with 10 ng ml^−1 BMP4 (R&D Systems). The medium was changed to cardiac differentiation medium with 10 μM KY02111 and/or other WNT inhibitors added on Day 3 (hiPSC lines) or Day 4 (human or monkey ESC lines); XAV939 (Wako, Japan), IWP-2 (Santa Cruz Biotechnology), IWR-1 (Merck4Bioscience), IGFBP4 (R&D Systems), Dkk1 (R&D Systems) and the mixture of bFGF (R&D Systems), BMP4 (R&D Systems), VEGF (R&D Systems), DKK1 (R&D Systems), and Activin A (R&D Systems) (Non-patent literature 16). Medium was changed every 2-3 d. KY02111 and other WNT inhibitors were added until Day 9 for hiPSC lines and the monkey ESC line, or Day 14 for hESC lines. […]

Row | SMILES | number of genes changed >25% at both 12 and 24 h (microarray) ([1]; 10 μM, versus DMSO) [genes] | expression levels of WNT target genes by qPCR [1] | number of cardiomyocytes produced relative to the control [2] [fold] | increase of differentiation compared to the control (GFP signal) ([3]; 10 μM, comparison of WNT inhibitors, FIG. 3b) | GFP expression level induced by N11474 and related compounds (structure-activity) ([3]; DMSO=100%) | promotion of cardiac differentiation relative to DMSO control (GFP increase ratio) ([3]; FIG. 1d) | promotion of cardiac differentiation relative to N11474 ([3]; FIG. 1d) [times] | intensity of the GFP signal driven by αMHC promoter [3] | cardiac differentiation when BIO was added [3]
1 | COc1ccc(CCC(=O)Nc2nc3ccc(Cl)cc3s2)cc1OC [KY02111, 2-(3-(3,4-dimethoxyphenyl)propanamide)-6-chlorobenzothiazole] | 26 | suppressed | 80 | about 80 fold | induced the highest levels | about 73 times | 7.4 | most effective | not affected by BIO
2 | Oc1nc(-c2ccc(C(F)(F)F)cc2)nc2c1CSCC2 [XAV939, reference compound] | – | suppressed | – | – | – | – | – | increased | completely inhibited
3 | Cc1ccc2nc(NC(=O)CSc3nc4c(c(=O)n3-c3ccccc3)SCC4)sc2c1 [IWP-2, reference compound] | – | suppressed | – | – | – | – | – | increased | completely inhibited
